Data from patent US8574563B2 (Bristol-Myers Squibb Company, priority 2006, dated 2013).
Like-named read-outs stand apart in the source and are kept apart here.

Tested on: HCV 1b-377-neo replicon cells
Test: HCV replicon assay, HCV 1b-377-neo replicon cells (1b FRET)
Type: cell-based, Hepatitis C virus genotype 1b
Settings: HCV 1b-377-neo replicon cells, HCV 1b genotype; for EC50: read-out: EC50 range against HCV 1b (Table 2, Range)
Summary of the method: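 Compounds tested in HCV genotype 1b-377-neo replicon cells with a FRET read-out. Cells resistant to a reference NS5A inhibitor through a Y2065H NS5A mutation were run alongside wild-type cells.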

SMILES | EC50 (Hepatitis C virus) | also measured
CCN(CC)[C@@H](C(=O)N1CCC[C@H]1c1ncc(-c2ccc(-c3ccc(-c4cnc([C@@H]5CCCN5C(=O)[C@@H](c5ccccc5)N(C)C)[nH]4)cc3)cc2)[nH]1)c1ccccc1 [Example M52, (1R)-2-((2S)-2-(5-(4′-(2-((2S)-1-((2R)-2-(diethylamino)-2-phenylacetyl)-2-pyrrolidinyl)-1H-imidazol-5-yl)-4-biphenylyl)-1H-imidazol-2-yl)-1-pyrrolidinyl)-N,N-dimethyl-2-oxo-1-phenylethanamine] | 1000 to 99000 pM | –
CN(C)[C@@H](C(=O)N1CCC[C@H]1c1ncc(-c2ccc(-c3ccc(-c4cnc([C@@H]5CCCN5C(=O)[C@H]5CCN(Cc6ccccc6)C5)[nH]4)cc3)cc2)[nH]1)c1ccccc1 [Example 94-26, (1R)-2-((2S)-2-(5-(4′-(2-((2S)-1-(((3S)-1-benzyl-3-pyrrolidinyl)carbonyl)-2-pyrrolidinyl)-1H-imidazol-5-yl)-4-biphenylyl)-1H-imidazol-2-yl)-1-pyrrolidinyl)-N,N-dimethyl-2-oxo-1-phenylethanamine] | 1 to 999 pM | –
CCCc1[nH]c([C@@H]2CCCN2C(=O)[C@H](C)NC(=O)OC)nc1-c1ccc(-c2ccc(-c3cnc([C@@H]4CCCN4C(=O)[C@H](C)NC(=O)OC)[nH]3)cc2)cc1 [Example J14c, methyl ((1S)-2-((2S)-2-(4-(4′-(2-((2S)-1-(N-(methoxycarbonyl)-L-alanyl)-2-pyrrolidinyl)-4-propyl-1H-imidazol-5-yl)-4-biphenylyl)-1H-imidazol-2-yl)-1-pyrrolidinyl)-1-methyl-2-oxoethyl)carbamate] | 1 to 999 pM | –
CO[C@@H](C(=O)N1CCC[C@H]1c1ncc(-c2ccc(-c3ccc(-c4cnc([C@@H]5CCCN5C(=O)[C@H](OC)c5ccccc5)[nH]4)cn3)cc2)[nH]1)c1ccccc1 [Example 135, 5-(2-((2S)-1-((2R)-2-methoxy-2-phenylacetyl)-2-pyrrolidinyl)-1H-imidazol-5-yl)-2-(4-(2-((2S)-1-((2R)-2-methoxy-2-phenylacetyl)-2-pyrrolidinyl)-1H-imidazol-5-yl)phenyl)pyridine] | 1 to 999 pM | –
O=C(N[C@@H](C(=O)N1CCC[C@H]1c1ncc(-c2ccc(-c3ccc(-c4cnc([C@@H]5CCCN5C(=O)[C@@H]5CCCO5)[nH]4)cc3)cc2)[nH]1)c1ccccc1)C1CCOCC1 [Example 115, N-((1R)-2-oxo-1-phenyl-2-((2S)-2-(5-(4′-(2-((2S)-1-((2S)-tetrahydro-2-furanylcarbonyl)-2-pyrrolidinyl)-1H-imidazol-5-yl)-4-biphenylyl)-1H-imidazol-2-yl)-1-pyrrolidinyl)ethyl) tetrahydro-2H-pyran-4-carboxamide] | 1 to 999 pM | –
COC(=O)N[C@H](C(=O)N1CCC[C@H]1c1ncc(-c2ccc(-c3ccc(-c4cnc([C@@H]5CCCN5C(=O)[C@H]5CCCC[C@H]5NC(=O)OC)[nH]4)cc3)cc2)[nH]1)C(C)C [cj-93, methyl ((1S)-1-(((2S)-2-(5-(4′-(2-((2S)-1-(((1S,2R)-2-((methoxycarbonyl)amino)cyclohexyl)carbonyl)-2-pyrrolidinyl)-1H-imidazol-5-yl)-4-biphenylyl)-1H-imidazol-2-yl)-1-pyrrolidinyl)carbonyl)-2-methylpropyl)carbamate] | 1 to 999 pM | –
COC(=O)N[C@@H](CCN(C)C)C(=O)N1CCC[C@H]1c1ncc(-c2ccc(-c3ccc(-c4cnc([C@@H]5CCCN5C(=O)[C@H](CCN(C)C)NC(=O)OC)[nH]4)cc3)cc2)[nH]1 [cj-146, dimethyl (4,4′-biphenyldiylbis(1H-imidazole-5,2-diyl(2S)-2,1-pyrrolidinediyl((2S)-4-(dimethylamino)-1-oxo-1,2-butanediyl)))biscarbamate] | 100000 to 999000 pM | –
COC(=O)N[C@@H](C(=O)N1CCC[C@H]1c1ncc(-c2ccc(-c3ccc(-c4cnc([C@@H]5CCCN5C(=O)CNC(C)=O)[nH]4)cc3)cc2)[nH]1)c1ccccc1 [Example 41, methyl ((1R)-2-((2S)-2-(5-(4′-(2-((2S)-1-(N-acetylglycyl)-2-pyrrolidinyl)-1H-imidazol-5-yl)-4-biphenylyl)-1H-imidazol-2-yl)-1-pyrrolidinyl)-2-oxo-1-phenylethyl)carbamate] | 1 to 999 pM | –
O=C1C[C@@H](C(=O)N2CCC[C@H]2c2ncc(-c3ccc(-c4ccc(-c5cnc([C@@H]6CCCN6C(=O)[C@@H]6CC(=O)NC(=O)N6)[nH]5)cc4)cc3)[nH]2)NC(=O)N1 [cj-132, (6S,6′S)-6,6′-(4,4′-biphenyldiylbis(1H-imidazole-5,2-diyl(2S)-2,1-pyrrolidinediylcarbonyl))didihydro-2,4(1H,3H)-pyrimidinedione] | 100000 to 999000 pM | –
COC(=O)N[C@@H](C(=O)N1CCC[C@H]1c1ncc(-c2ccc(-c3ccc(-c4cnc([C@@H]5CCCN5C(=O)c5ncc[nH]5)[nH]4)cc3)cc2)[nH]1)c1ccccc1 [Example 63, methyl ((1R)-2-((2S)-2-(5-(4′-(2-((2S)-1-(1H-imidazol-2-ylcarbonyl)-2-pyrrolidinyl)-1H-imidazol-5-yl)-4-biphenylyl)-1H-imidazol-2-yl)-1-pyrrolidinyl)-2-oxo-1-phenylethyl)carbamate] | 1 to 999 pM | –
COC(=O)N[C@@H](C(=O)N1CCC[C@H]1c1ncc(-c2ccc(-c3ccc(-c4cnc([C@@H]5CCCN5C(=O)CCN5CCCCC5)[nH]4)cc3)cc2)[nH]1)c1ccccc1 [Example 84-24, methyl ((1R)-2-oxo-1-phenyl-2-((2S)-2-(5-(4′-(2-((2S)-1-(3-(1-piperidinyl)propanoyl)-2-pyrrolidinyl)-1H-imidazol-5-yl)-4-biphenylyl)-1H-imidazol-2-yl)-1-pyrrolidinyl)ethyl)carbamate] | 1 to 999 pM | –
COC(=O)N[C@H](C(=O)N1CCC[C@H]1c1ncc(-c2ccc(-c3ccc(-c4cnc([C@@H]5CCCN5C(=O)[C@@H](NC(=O)OC)C(C)C)[nH]4)cc3C(N)=O)cc2)[nH]1)C(C)C [Example M118, methyl ((1S)-1-(((2S)-2-(5-(2′-carbamoyl-4′-(2-((2S)-1-((2S)-2-((methoxycarbonyl)amino)-3-methylbutanoyl)-2-pyrrolidinyl)-1H-imidazol-5-yl)-4-biphenylyl)-1H-imidazol-2-yl)-1-pyrrolidinyl)carbonyl)-2-methylpropyl)carbamate] | – | EC50 range against HCV 1b (Table 2, Range): >A
O=C([C@@H](c1ccccc1)N1CCCCC1)N1CCC[C@H]1c1ncc(-c2ccc(-c3ccc(-c4cnc([C@@H]5CCCN5C(=O)C5(c6ccccc6)CC5)[nH]4)cc3)cc2)[nH]1 [Example 107-22, 1-((1R)-2-oxo-1-phenyl-2-((2S)-2-(5-(4′-(2-((2S)-1-((1-phenylcyclopropyl)carbonyl)-2-pyrrolidinyl)-1H-imidazol-5-yl)-4-biphenylyl)-1H-imidazol-2-yl)-1-pyrrolidinyl)ethyl)piperidine] | 1 to 999 pM | –
O=C([C@H](O)c1ccccc1)N1C[C@H](O)C[C@H]1c1ncc(-c2ccc(-c3ccc(-c4cnc([C@@H]5C[C@@H](O)CN5C(=O)[C@H](O)c5ccccc5)[nH]4)cc3)cc2)[nH]1 [Example 24-12, (3R,5S,3′R,5′S)-5,5′-(4,4′-biphenyldiylbis(1H-imidazole-5,2-diyl))bis(1-((2R)-2-hydroxy-2-phenylacetyl)-3-pyrrolidinol)] | 1000 to 99000 pM | –
O=C([C@@H](c1ccccc1)N1CCCCC1)N1C[C@@H](F)C[C@H]1c1ncc(-c2ccc(-c3ccc(-c4cnc([C@@H]5C[C@H](F)CN5C(=O)[C@@H](c5ccccc5)N5CCCCC5)[nH]4)cc3)cc2)[nH]1 [Example 24-7] | 1 to 999 pM | –
COC(=O)N[C@H](C(=O)N1CCC[C@H]1c1ncc(-c2ccc(-c3ccc(-c4cnc([C@@H]5CCCN5C(=O)[C@@H](NC(=O)OC)[C@@H](C)CO)[nH]4)cc3)cc2)[nH]1)C(C)C [Example M106] | 1000 to 99000 pM | –
CNCC(=O)N1CCC[C@H]1c1ncc(-c2ccc(-c3ccc(-c4cnc([C@@H]5CCCN5C(=O)[C@@H](NC(=O)OC)C(C)C)[nH]4)cc3)cc2)[nH]1 [LS20, methyl ((1S)-2-methyl-1-(((2S)-2-(5-(4′-(2-((2S)-1-(N-methylglycyl)-2-pyrrolidinyl)-1H-imidazol-5-yl)-4-biphenylyl)-1H-imidazol-2-yl)-1-pyrrolidinyl)carbonyl)propyl)carbamate] | 1 to 999 pM | –
COC(=O)N[C@H](C(=O)N1CCC[C@H]1c1ncc(-c2ccc(-c3ccc(-c4cnc([C@@H]5CCCN5C(=O)[C@@H](Nc5cncnc5)C(C)C)[nH]4)cc3)cc2)[nH]1)C(C)C [cj-20d, methyl ((1S)-2-methyl-1-(((2S)-2-(5-(4′-(2-((2S)-1-(N-5-pyrimidinyl-L-valyl)-2-pyrrolidinyl)-1H-imidazol-5-yl)-4-biphenylyl)-1H-imidazol-2-yl)-1-pyrrolidinyl)carbonyl)propyl)carbamate] | 1 to 999 pM | –
CN(C)[C@@H](C(=O)N1CCC[C@H]1c1ncc(-c2ccc(-c3ccc(-c4cnc([C@@H]5CCCN5C(=O)c5ccc(N6CCOCC6)cc5)[nH]4)cc3)cc2)[nH]1)c1ccccc1 [Example 94-9, (1R)-N,N-dimethyl-2-((2S)-2-(5-(4′-(2-((2S)-1-(4-(4-morpholinyl)benzoyl)-2-pyrrolidinyl)-1H-imidazol-5-yl)-4-biphenylyl)-1H-imidazol-2-yl)-1-pyrrolidinyl)-2-oxo-1-phenylthanamine] | – | EC50: 1 to 999 pM
COC(=O)N[C@@H](Cc1cccnc1)C(=O)N1CCC[C@H]1c1ncc(-c2ccc(-c3ccc(-c4cnc([C@@H]5CCCN5C(=O)[C@@H](NC(=O)OC)C(C)C)[nH]4)cc3)cc2)[nH]1 [cj-83, methyl ((1S)-2-((2S)-2-(5-(4′-(2-((2S)-1-((2S)-2-((methoxycarbonyl)amino)-3-methylbutanoyl)-2-pyrrolidinyl)-1H-imidazol-5-yl)-4-biphenylyl)-1H-imidazol-2-yl)-1-pyrrolidinyl)-2-oxo-1-(3-pyridinylmethyl)ethyl)carbamate] | 1 to 999 pM | –
